Reference: patent US5780441A, “Sphingoglycolipid compounds and therapeutic uses thereof” (Kirin Beer Kabushiki Kaisha, priority 1993, dated 1998)

How the values were obtained:
mouse splenic lymphocyte = assay: In vitro mouse splenic lymphocyte-proliferation-stimulating effect (3H-TdR uptake); assay type: cell-based, mouse (BDF1 female); details: 2 days; for activity at 1 µg/mL / activity at 0.1 µg/mL / activity at 0.01 µg/mL / activity at 0.001 µg/mL: Mus musculus, Splenic lymphocyte, 48 h, read-out: Uptake of 3H-TdR (% of control), splenic lymphocytes; for activity at 0.1 µg/mL: 10^-1 μg/ml; for activity at 0.01 µg/mL: 10^-2 μg/ml; for Uptake of 3H-TdR (% of control), splenic lymphocytes: 2880 min
Method: i) In vitro mouse splenic lymphocyte growth promoting effects of the present compounds
Experiment was performed with BDF1 female mice (6 weeks old) purchased from NIPPON SLC K.K. Spleens were removed from mice, and spleen cells were brayed with slide glasses and hemolized with NH4 Cl. 2×10^6cells/ml of the spleen cells which had been hemolized were suspended in 10% FCS RPMI 1640. The cell suspension (100 μl/well) and a vehicle or sample (10 μl/well) which was prepared so as to have a final level shown in Table 3 were added into wells of a round-bottomed 96 well plate, and cultured under the condition of 5% CO2 at 37° C. for 2 days. 0.5 μCi/well of ^3 H-thymidine (^3 H-TdR) was added. After 6 hours, the cells were harvested, and the amount of ^3 H-TdR uptaken into nucleus was measured by a liquid scintillation counter. The ratio (%) of the uptake of ^3 H-TdR in the sample group to that in the vehicle group was calculated and used as the in vitro mouse splenic lymphocyte-proliferation-stimulating rate.

mouse bone marrow cells = assay: In vitro mouse bone marrow cell-proliferation-promoting effect (3H-TdR uptake); assay type: cell-based, mouse (BDF1 female); details: 4 days; for activity at 0.1 µg/mL / activity at 0.01 µg/mL: Mus musculus, Bone marrow cell, 96 h, read-out: Uptake of 3H-TdR (% of control), bone marrow cells; for Uptake of 3H-TdR (% of control), bone marrow cells: 5760 min
Method: In vitro mouse bone marrow cell-proliferation-promoting effect of the present compound
Experiment was performed with BDF1 female mice (6 weeks old) purchased from NIPPON SLC K.K. Bone marrow cells were removed from the femoral bone of mice by the conventional manner, floated on 10% FCS RPMI 1640, layered over Lympholite M, and centrifuged to give a monocyte fraction. 1×10^6 cells/ml of the monocyte fraction was suspended in 10% FCS RPMI 1640. The cell suspension (100 μl/well) and a vehicle or sample (10 μl/well) which was prepared so as to have a final level shown in Table 2 were added into a wells of round-bottomed 96 well plate, and cultured under the condition of 5% CO2 at 37° C. for 4 days. 0.5 μCi/well of ^3 H-thymidine (^3 H-TdR) was added. After 6 hours, the cells were harvested, and the amount of ^3 H-TdR uptaken into nucleus was measured by a liquid scintillation counter. The ratio of the uptake of ^3 H-TdR in the sample group to that in the vehicle group was calculated and used as the activation rate for promoting in vitro mouse bone marrow cell growth.

[1] = test system: mixed lymphocyte culture reaction (spleen cells of C57BL/6 and BALB/C mice); assay: Mixed lymphocyte culture reaction (MLR); assay type: cell-based, mouse (C57BL/6 stimulator, BALB/C responder); details: 42 hours; for activity at 1 µg/mL / activity at 0.1 µg/mL: Mus musculus, Lymphocyte, read-out: MLR activating rate (%); for MLR activating rate (%): 2520 min
Method: ii) Mixed lymphocyte culture reaction (MLR) of the compounds of the present invention
Spleen cells were prepared from C57BL/6 mice and treated with 50 μg/ml of mitomycin C for 30 minutes. The treated cells were used as stimulator cells, and the spleen cells of BALB/C mice as responder cells. 2×10^6 cells/ml of the both spleen cells were suspended in 10% FCS RPMI1640 as a culture medium. The above-described cells (50 μl/well) and a sample (10 μl/well) were added into wells of a round-bottomed 96 well plate, and cultured under the condition of 5% CO2 at 37° C. for 42 hours. 0.5 μCi/well of ^3 H-thymidine (^3 H-TdR) was added. After 8 hours, the cells were harvested, and the amount of uptaken ^3 H-TdR was measured by a liquid scintillation counter to calculate the ratio (%) of the uptake of ^3 H-TdR in the sample group to that in the vehicle group as the MLR activating rate.

lethally irradiated mice = assay: Radioprotective effect: life-span prolongation of lethally irradiated mice; assay type: in vivo, mouse (BDF1 female); details: 0.1 mg/kg i.v. days 0, 4, 8, 9 Gy X-ray, groups of 10
Method: Life-span-prolonging effects of the present compounds on lethally irradiated mice.
Experiment was performed with BDF1 female mice (6 weeks old) purchased from NIPPON SLC K.K., which were divided into groups consisting of 10 animals. Mice were irradiated generally with 9 Gy of X-ray with an X-ray generating apparatus, Hitachi, MBR-1520R (radiation day: day 0). Samples at a dose of 0.1 mg/kg were administered into tail vein on days 0, 4 and 8 in order to observe the mortality of the animals for 40 days.
In the table, two experiments are separated by the broken line.

[2] = test system: P388 mouse leukemia cells; assay: Life-span-prolonging (anti-tumor) effect on mice subcutaneously inoculated with P388 mouse leukemia cells; assay type: in vivo, mouse (CDF1 female); details: for Survival days ave. ± s. d.: all marked ** (p < 0.01); for response vs control in vivo at 0.1 mg/kg: Mus musculus, P388, iv, read-out: T/C (%)
Method: i) Anti-tumor effect of the compound of the present invention on mice subcutaneously inoculated with P388 mouse leukemia cells.
Experiment was performed with CDF1 female mice (6 weeks) purchased from NIPPON SLC K.K., which were divided into groups consisting of 5 animals. […]. In this connection, lentinan and picibanil were administered intravenously on days 1, 3, 5, 7 and 9 after implantation, and sizofilan was administered subcutaneously on days 1 through 9. Statistical analysis was performed according to the Mann-Whiteney test.

B16 mouse melanoma cells = assay: Tumor growth inhibition in mice subcutaneously inoculated with B16 mouse melanoma cells; assay type: in vivo, mouse (BDF1 female); details: 0.1 mg/kg i.v. days 1, 5, 9; maximum during 20 days
Method: ii) Anti-tumor effect of the compound according to the present invention on mice subcutaneously inoculated with B16 mouse melanoma cells.
Experiment was performed with BDF1 female mice (6 weeks) purchased from NIPPON SLC K.K., which were divided into groups consisting of 6 animals. […]. The subcutaneous tumor volumes [(length×width×height)/2] were measured on days 8, 12, 16 and 20 after implantation to determine the tumor growth inhibiting rate (TGIR) of each sample. TGIR was calculated from the following formula: […]
wherein C: tumor volume in the control group, and
T: tumor volume in the sample adminitered groups.
In this connection, Compounds 1-6 and 7-9 were tested in the same time, respectively.

[3] = 0.1 mg/kg i.v. on days 1, 5 and 9
[4] = 0.1 mg/kg i.v. on days 1, 5 and 9, survival vs vehicle

Compound	activity at 1 µg/mL (mouse splenic lymphocyte; 10^0 μg/ml) [%]	activity at 0.1 µg/mL (mouse splenic lymphocyte) [%]	activity at 0.01 µg/mL (mouse splenic lymphocyte) [%]	activity at 0.001 µg/mL (mouse splenic lymphocyte; 10^-3 μg/ml) [%]	activity at 0.1 µg/mL (mouse bone marrow cells; 10^-1 μg/ml) [%]	activity at 0.01 µg/mL (mouse bone marrow cells; 10^-2 μg/ml) [%]	activity at 1 µg/mL ([1]; 1 × 10^0 μg/ml) [%]	activity at 0.1 µg/mL ([1]; 1 × 10^-1 μg/ml) [%]	Number of surviving mice (lethally irradiated mice; day 10) [mice]	Number of surviving mice (lethally irradiated mice; day 15) [mice]	Number of surviving mice (lethally irradiated mice; day 20) [mice]	Number of surviving mice (lethally irradiated mice; day 25) [mice]	Number of surviving mice (lethally irradiated mice; day 30) [mice]	Number of surviving mice (lethally irradiated mice; day 35) [mice]	Number of surviving mice (lethally irradiated mice; day 40) [mice]	Survival days ave. ± s. d. [2, 3] [days]	response vs control in vivo at 0.1 mg/kg [2, 4] [%]	Maximum tumor growth inhibiting rate, TGIR (%) (B16 mouse melanoma cells)	also measured
CCCCCCCCCCCCCCCCCCCCCC[C@@H](O)C(=O)N[C@@H](CO[C@H]1O[C@H](CO)[C@H](O)[C@H](O[C@H]2O[C@H](CO)[C@H](O)[C@H](O)[C@H]2NC(C)=O)[C@H]1O[C@H]1O[C@H](CO)[C@@H](O)[C@H](O)[C@H]1O)[C@H](O)[C@H](O)CCCCCCCCCCCC [Compound 1, O-(N-acetyl-2-amino-2-deoxy-α-D-galactopyranosyl)-(1→3)-O-[α-D-glucopyranosyl-(1→2)]-O-α-D-galactopyranosyl-(1→1)-(2S,3S,4R)-2-amino-N-[(R)-2-hydroxytetracosanoyl]-1,3,4-hexadecanetriol]	843	738	332	184	211	133	222	142	10	9	7	6	6	6	6	15.3 ± 0.8	120	–	–
CCCCCCCCCCCCCCCCCCCCCC[C@@H](O)C(=O)N[C@@H](CO[C@H]1O[C@H](CO)[C@H](O)[C@H](O[C@H]2O[C@H](CO)[C@H](O)[C@H](O)[C@H]2NC(C)=O)[C@H]1O[C@H]1O[C@H](CO)[C@@H](O)[C@H](O)[C@H]1O)[C@H](O)[C@H](O)CCCCCCCCCCCCC [Compound 2, O-(N-acetyl-2-amino-2-deoxy-α-D-galactopyranosyl)-(1→3)-O-[α-D-glucopyranosyl-(1→2)]-O-α-D-galactopyranosyl-(1→1)-(2S,3S,4R)-2-amino-N-[(R)-2-hydroxytetracosanoyl]-1,3,4-heptadecanetriol]	890	735	508	270	268	276	213	158	10	10	10	9	9	9	9	15.8 ± 0.5	123	82.6	–
CCCCCCCCCCCCCCCCCCCCCC[C@@H](O)C(=O)N[C@@H](CO[C@H]1O[C@H](CO)[C@H](O)[C@H](O[C@H]2O[C@H](CO)[C@H](O)[C@H](O)[C@H]2NC(C)=O)[C@H]1O[C@H]1O[C@H](CO)[C@@H](O)[C@H](O)[C@H]1O)[C@H](O)[C@H](O)CCCCCCCCCCCCCC [Compound 8, O-(N-acetyl-2-amino-2-deoxy-α-D-galactopyranosyl)-(1→3)-O-[α-D-glucopyranosyl-(1→2)]-O-α-D-galactopyranosyl-(1→1)-(2S,3S,4R)-2-amino-N-[(R)-2-hydroxytetracosanoyl]-1,3,4-octadecanetriol]	–	–	–	–	–	–	–	–	–	–	–	–	–	–	–	16.0 ± 0.7	–	78.4	Uptake of 3H-TdR (% of control), splenic lymphocytes (mouse splenic lymphocyte; 10^0 μg/ml): 997 % of control; Uptake of 3H-TdR (% of control), splenic lymphocytes (mouse splenic lymphocyte; 10^-3 μg/ml): 609 % of control; Uptake of 3H-TdR (% of control), bone marrow cells (mouse bone marrow cells; 10^-1 μg/ml): 240 % of control; Uptake of 3H-TdR (% of control), bone marrow cells (mouse bone marrow cells; 10^-2 μg/ml): 167 % of control; MLR activating rate (%) ([1]; 1 × 10^0 μg/ml): 286%; MLR activating rate (%) ([1]; 1 × 10^-1 μg/ml): 232%; T/C (%) [2, 4]: 125%
CCCCCCCCCCCCCCCCCCCCCCCCCC(=O)N[C@@H](CO[C@H]1O[C@H](CO)[C@@H](O[C@H]2O[C@H](CO)[C@@H](O)[C@H](O)[C@H]2O)[C@H](O)[C@H]1O)[C@H](O)[C@H](O)CCCCCCCCCCCCCC [Compound 35, O-α-D-glucopyranosyl-(1→4)-O-α-D-glucopyranosyl-(1→1)-(2S,3S,4R)-2-amino-N-hexacosanoyl-1,3,4-octadecanetriol]	431	874	803	538	223	148	165	133	–	–	–	–	–	–	–	14.8 ± 1.3	116	–	life-span-prolonging effect (anti-tumor effect), in words ([2]; P388 s.c. system): intensive anti-tumor effects almost in the same level as that of Compound b
